These results are taken from PMC3362575, “Synthesis and Biological Evaluation of Phenanthrenes as Cytotoxic Agents with Pharmacophore Modeling and ChemGPS-NP Prediction as Topo II Inhibitors” (PLoS ONE, 2012).

Values after ≈ are worked out from the molar mass of the structure shown.

Common to all, as to format: cell-based, human
For one assay, the system named is HepG2. The assay can be described thus: MTT cytotoxicity assay, HepG2. Particulars: Homo sapiens. How it is done:
(§1) The cytotoxic assay of 11 naturally occurring and 19 synthesized phenanthrenes was carried out on a diverse set of human liver (HepG2 and Hep3B), oral (Ca9-22), lung (A549) and breast (MEA-MB-231 and MCF7) cancer cell lines, and a human fetal lung fibroblast (MRC-5) cell line (Tables 1 and 2).
(§2) Compounds were tested against human liver (HepG2 and Hep3B), oral (Ca9-22), lung (A549), breast (MEA-MB-231 and MCF7) cancer cell lines, and the human fetal lung fibroblast (MRC-5) cell line using an established colorimetric MTT assay protocol. The absorbance was measured at 550 nm using a microplate reader. The IC50 is the concentration of agent that reduced cell growth by 50% under the experimental conditions.
(Tetrazolium assays rely on reduction of a dye to a coloured formazan, in cell work by metabolically active cells.)

The test system of a further assay is Ca9-22. The assay can be described thus: MTT cytotoxicity assay, Ca9-22. To be noted: Homo sapiens. As to the method:
as §1, §2

In another assay the test system is MCF-7. The assay can be described thus: MTT cytotoxicity assay, MCF-7. Particulars: Homo sapiens; for IC50: MTT; for MCF-7 activity class (from IC50): MCF7, Table S3, read-out: Scale Exptl. (MCF-7 activity class). As to the method: as §1, §2
The pharmacophore modeling with Catalyst HypoGen was performed via Discovery Studio 2.1 (Accelrys, San Diego, CA, USA). Twenty-nine phenanthrene derivatives were collected from the natural plant, C. arisanensis, and from chemical synthesis (Figure 2). Cytotoxicity against MCF-7 cells was determined by the MTT assay and the concentration (µg/mL) of test compound which inhibited 50% of the cancer cells (IC50) was used in the generation of the pharmacophore model. An IC50 value of >20 µg/mL was defined as 20 µg/mL. All experimental IC50 values spanned about 2–3 orders of magnitude from 0.09 to 20 µg/mL. The 2D/3D structures of compounds were generated using ChemBioOffice 2008 (Cambridge Scientic Computing, Cambridge, Massachusetts, USA) and then optimized in a Dreiding force field. The conformational ensemble of each compound was generated using the best conformational analysis method based on a CHARMM force field with a 20 kcal/mol energy threshold above the global minimum. A maximum limit of 255 conformations was used to cover maximum conformational space. The best 3D arrangements of chemical functionalities should explain the activity variations among the 29 compounds. Thirty runs with different parameters were performed for the best pharmacophore hypothesis. Four chemical features, including hydrogen-bond acceptor (HBA), hydrogen-bond donor (HBD), hydrophobic (HYD), and aromatic ring (AR) features, were also tested during the building of pharmacophore hypotheses (Table S1; Text S1). The best hypotheses were selected via a correlation and a cost analysis in Catalyst HypoGen.

Another assay has as its system Hep3B. Put plainly: MTT cytotoxicity assay, Hep3B. Particulars: Homo sapiens, Hep3B. As to the method: as §1, §2
In another assay the test system is MRC-5. Put plainly: MTT cytotoxicity assay, MRC-5 fetal lung fibroblast. To be noted: Homo sapiens, normal fetal lung fibroblast. How it is done: as §1, §2
Another assay concerns A549. The assay can be described thus: MTT cytotoxicity assay, A549. Particulars: Homo sapiens. How it is done:
as §1, §2

The test system of a further assay is MDA-MB-231. Put plainly: MTT cytotoxicity assay, MDA-MB-231. Particulars: Homo sapiens. As to the method: as §1, §2
Setting [1] is: HepG2, Table 1, natural phenanthrenes.
Where [2] appears, read: Ca9-22, Table 1, natural phenanthrenes.
Where [3] appears, read: MCF7, Table 1, natural phenanthrenes.
The mark [4] stands for this setting: MRC5, Table 1, natural phenanthrenes.
[5] abbreviates: A549, Table 1, natural phenanthrenes.
Where [6] appears, read: MDA-MB-231, Table 1, natural phenanthrenes.
Where [7] appears, read: Ca9-22, Table 2, synthesized phenanthrenes.
Setting [8] is: MCF7, Table 2, synthesized phenanthrenes.
Setting [9] is: Table 2, synthesized phenanthrenes.
Where [10] appears, read: A549, Table 2, synthesized phenanthrenes.
[11] abbreviates: MDA-MB-231, Table 2, synthesized phenanthrenes.

Regarding `COc1cc2ccc3cccc(O)c3c2c(OC)c1O` [CA-8], the IC50 (commonly the point on the concentration scale where inhibition reaches its midpoint) in the assay on HepG2 (setting [1]) was over 20 µg/mL; in the assay on Ca9-22 (setting [2]) it was over 20 µg/mL; in the assay on MCF-7 (setting [3]), over 20 µg/mL; with Hep3B (Table 1, natural phenanthrenes), over 20 µg/mL; with MRC-5 (setting [4]), over 20 µg/mL; in the assay on A549 (setting [5]), over 20 µg/mL. The same compound yielded an IC50 in the assay with MDA-MB-231 (setting [6]) of over 20 µg/mL. Besides, the MCF-7 activity class (from IC50) in the assay on MCF-7 was over 20 µg/mL.
As for `COc1cc(O)c(-c2c(O)cc(OC)c3c2CCc2cc(O)ccc2-3)c2c1-c1ccc(O)cc1CC2` [CA-11], the IC50 with HepG2 (setting [1]) was found to be 7.17 ± 0.35 µg/mL (≈ 14.9 µM); in the assay with Ca9-22 (setting [2]) it was 5.86 ± 0.06 µg/mL (≈ 12.1 µM); with MCF-7 (setting [3]), 4.84 ± 0.89 µg/mL (≈ 10 µM); in the assay with Hep3B (Table 1, natural phenanthrenes), 6.28 ± 0.26 µg/mL (≈ 13 µM); in the assay on MRC-5 (setting [4]), 13.2 ± 0.33 µg/mL (≈ 27.3 µM); in the assay with A549 (setting [5]) it was 7.4 ± 0.01 µg/mL (≈ 15.3 µM). The compound further returned an IC50 with MDA-MB-231 (setting [6]) of 7.42 ± 0.03 µg/mL (≈ 15.4 µM). Further, the MCF-7 activity class (from IC50) in the assay with MCF-7 is 1 to 20 µg/mL.
`COc1cc2ccc3c(OC)ccc(OC)c3c2c(OC)c1OC` [Compound 3a, 1,4,5,6,7-Pentamethoxy-phenanthrene]: the IC50 with HepG2 (HepG2, Table 2, synthesized phenanthrenes) was over 20 µg/mL; in the assay with Ca9-22 (setting [7]), over 20 µg/mL; with MCF-7 (setting [8]), over 20 µg/mL; in the assay on Hep3B (setting [9]), 15.55 ± 0.08 µg/mL (≈ 47.4 µM); in the assay on MRC-5 (MRC5, Table 2, synthesized phenanthrenes) it was over 20 µg/mL; in the assay with A549 (setting [10]), over 20 µg/mL. The IC50 in the assay with MDA-MB-231 (setting [11]) was over 20 µg/mL. Also, the MCF-7 activity class (from IC50) in the assay on MCF-7 is over 20 µg/mL.
As for `COc1cc(O)cc2c1-c1ccc(O)cc1CC2` [CA-10], the IC50 with HepG2 (setting [1]) was 7.52 µg/mL (≈ 31 µM); in the assay with Ca9-22 (setting [2]), 6.11 ± 0.51 µg/mL (≈ 25.2 µM); in the assay on MCF-7 (setting [3]), 6.77 ± 0.12 µg/mL (≈ 27.9 µM); with Hep3B (Table 1, natural phenanthrenes), 7.24 ± 0.18 µg/mL (≈ 29.9 µM); in the assay with MRC-5 (setting [4]), 16.4 ± 0.36 µg/mL (≈ 67.7 µM); in the assay on A549 (setting [5]), 7.46 ± 0.32 µg/mL (≈ 30.8 µM). For the same compound, in the assay on MDA-MB-231 (setting [6]), it took 7.56 ± 0.03 µg/mL (≈ 31.2 µM) to reach half-maximal inhibition (IC50). Further, the MCF-7 activity class (from IC50) in the assay with MCF-7 lay in the range of 1 to 20 µg/mL.
For `COc1cc(O)c2c(c1)CCc1ccc(O)c(OC)c1-2` [CA-7], the half-maximal inhibitory concentration (IC50) in the assay on HepG2 (setting [1]) is over 20 µg/mL; with Ca9-22 (setting [2]), over 20 µg/mL; in the assay with MCF-7 (setting [3]) it was 14.6 ± 0.34 µg/mL (≈ 53.7 µM); in the assay on Hep3B (Table 1, natural phenanthrenes) it was over 20 µg/mL; in the assay with MRC-5 (setting [4]), over 20 µg/mL; with A549 (setting [5]), over 20 µg/mL. Moreover, in the assay with MDA-MB-231 (setting [6]), the IC50 is over 20 µg/mL. Besides, the MCF-7 activity class (from IC50) in the assay on MCF-7 lay within 1 to 20 µg/mL.
Regarding `COc1cccc2c1C(=O)c1c(O)c3c(c(O)c1C2=O)C[C@@](O)(C(=O)CO)C[C@@H]3O[C@H]1C[C@H](N)[C@H](O)[C@H](C)O1` [Doxo, Doxorubicin, reference compound], the IC50 worked out at 0.22 ± 0.04 µg/mL (≈ 0.405 µM) in the assay with HepG2 (setting [1]); 0.16 ± 0.02 µg/mL (≈ 0.294 µM) in the assay on Ca9-22 (setting [2]); 0.14 ± 0.04 µg/mL (≈ 0.258 µM) in the assay with Ca9-22 (setting [7]); 0.67 ± 0.03 µg/mL (≈ 1.23 µM) in the assay on MCF-7 (setting [3]); 0.35 ± 0.09 µg/mL (≈ 0.644 µM) in the assay with MCF-7 (setting [8]); 0.49 µg/mL (≈ 0.902 µM) in the assay on Hep3B (Table 1, natural phenanthrenes). In addition, the IC50 was 0.42 ± 0.01 µg/mL (≈ 0.773 µM) in the assay on Hep3B (setting [9]); 1.94 ± 0.02 µg/mL (≈ 3.57 µM) in the assay with MRC-5 (setting [4]); 0.81 ± 0.04 µg/mL (≈ 1.49 µM) with A549 (setting [5]); 0.63 ± 0.15 µg/mL (≈ 1.16 µM) in the assay with A549 (setting [10]); 0.74 ± 0.01 µg/mL (≈ 1.36 µM) in the assay on MDA-MB-231 (setting [6]); 1.12 ± 0.05 µg/mL (≈ 2.06 µM) with MDA-MB-231 (setting [11]).
For `COc1cc2c(c(OC)c1OC)-c1c(O)ccc(O)c1CC2` [CA-6], the IC50 in the assay with HepG2 (setting [1]) was over 20 µg/mL; with Ca9-22 (setting [2]), 14.6 ± 0.31 µg/mL (≈ 48.2 µM); in the assay with MCF-7 (setting [3]), over 20 µg/mL; in the assay with Hep3B (Table 1, natural phenanthrenes), 11.5 ± 0.76 µg/mL (≈ 38 µM); in the assay on MRC-5 (setting [4]) it was over 20 µg/mL; in the assay on A549 (setting [5]), over 20 µg/mL. This compound showed an IC50 in the assay on MDA-MB-231 (setting [6]) of over 20 µg/mL. The MCF-7 activity class (from IC50) in the assay with MCF-7 is over 20 µg/mL.
For `COc1cc2c(c(OC)c1O)C1=C(CC2)C(=O)C=CC1=O` [CA-3], the IC50 was 19.76 ± 0.16 µg/mL (≈ 69 µM) with HepG2 (setting [1]); 12.6 ± 0.76 µg/mL (≈ 43.8 µM) with Ca9-22 (setting [2]); 13.2 µg/mL (≈ 46.3 µM) in the assay on MCF-7 (setting [3]); 6.02 ± 0.12 µg/mL (≈ 21 µM) with Hep3B (Table 1, natural phenanthrenes); over 20 µg/mL in the assay on MRC-5 (setting [4]); over 20 µg/mL in the assay on A549 (setting [5]). The IC50 with MDA-MB-231 (setting [6]) was found to be 11.9 ± 0.02 µg/mL (≈ 41.6 µM). In the assay on MCF-7, the MCF-7 activity class (from IC50) is 1 to 20 µg/mL.
